A word on the IC50: it is the concentration needed to halve the response being measured. A low value points to higher potency. In general, Ki refers to the equilibrium dissociation constant of an inhibitor or competing ligand from its target. A lower Ki goes with higher affinity.

The values that follow come from paper PMC5321205 (Journal of medicinal chemistry, 2016).

Series [1] relates to α1-acid glycoprotein (AGP). Nature of the series: SPR. (In SPR one partner is held on a chip, and binding of the other changes the refractive index at the surface.)
Series [2] deals with human serum albumin (HSA) (Homo sapiens, UniProt P02768). Put plainly: SPR.
Series [3] has as its target T1, hCB2R (Homo sapiens, UniProt P34972). Nature of the series: cAMP determination assay, forskolin-stimulated HEK293-CB2R cells. Particulars: for effect on forskolin-stimulated cAMP accumulation, preliminary screening: 200 nM and 1 μM; for effect on forskolin-stimulated cAMP accumulation, preliminary screening / CB2 functional profile in cAMP assay: HEK293-CB2R cells; for CB2R antagonism of CP55,940 effect in cAMP assay: CP55,940 100 nM and 1 μM, compound at 200 nM (31 also at 1 μM). (In general: cAMP levels reflect the balance of adenylyl cyclase and phosphodiesterase activity.)

Series [4] concerns the target T1, hCB2R. Nature of the series: [35S]-GTPγS binding assay, CB2R-containing membranes. A general note: GTPγS resists hydrolysis and so accumulates on activated G proteins.
In series [5] the target is human CB2 (hCB2) cannabinoid receptor (Homo sapiens, UniProt P34972). Put plainly: [3H]-CP55,940 radioligand competition binding, hCB2 membranes.
For series [6], the target named is human CB1 (hCB1) cannabinoid receptor (Homo sapiens, UniProt P21554). Nature of the series: biochemical. Type of series: binding.
For a further series, the target named is human CB1 receptor (Homo sapiens, UniProt P21554). It counts as biochemical.
Chain of human CB1 receptor (P21554 whole entry): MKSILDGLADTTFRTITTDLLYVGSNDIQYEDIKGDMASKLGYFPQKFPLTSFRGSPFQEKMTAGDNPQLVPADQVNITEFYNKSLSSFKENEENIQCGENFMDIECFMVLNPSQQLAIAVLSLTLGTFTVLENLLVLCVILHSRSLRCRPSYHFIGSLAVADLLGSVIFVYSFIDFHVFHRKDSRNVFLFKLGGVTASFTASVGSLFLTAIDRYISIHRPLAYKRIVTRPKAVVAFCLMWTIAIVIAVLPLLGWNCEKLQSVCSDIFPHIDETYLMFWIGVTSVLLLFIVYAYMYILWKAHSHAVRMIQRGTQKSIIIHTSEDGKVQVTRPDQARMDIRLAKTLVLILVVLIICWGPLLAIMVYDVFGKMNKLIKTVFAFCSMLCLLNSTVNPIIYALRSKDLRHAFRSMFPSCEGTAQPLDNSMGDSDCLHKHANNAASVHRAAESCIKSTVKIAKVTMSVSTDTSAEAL

T1 sequence (P34972 whole entry): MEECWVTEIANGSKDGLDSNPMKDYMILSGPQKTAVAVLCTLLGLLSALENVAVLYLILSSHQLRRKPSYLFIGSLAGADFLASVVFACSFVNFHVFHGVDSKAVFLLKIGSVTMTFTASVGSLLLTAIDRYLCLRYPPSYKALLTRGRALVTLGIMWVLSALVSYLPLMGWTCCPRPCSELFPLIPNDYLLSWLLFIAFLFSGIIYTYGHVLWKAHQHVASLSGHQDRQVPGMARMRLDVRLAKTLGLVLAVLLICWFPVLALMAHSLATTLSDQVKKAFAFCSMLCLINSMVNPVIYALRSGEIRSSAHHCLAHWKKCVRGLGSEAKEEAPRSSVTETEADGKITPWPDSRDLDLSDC
Chain of human serum albumin (HSA) (P02768 25-609): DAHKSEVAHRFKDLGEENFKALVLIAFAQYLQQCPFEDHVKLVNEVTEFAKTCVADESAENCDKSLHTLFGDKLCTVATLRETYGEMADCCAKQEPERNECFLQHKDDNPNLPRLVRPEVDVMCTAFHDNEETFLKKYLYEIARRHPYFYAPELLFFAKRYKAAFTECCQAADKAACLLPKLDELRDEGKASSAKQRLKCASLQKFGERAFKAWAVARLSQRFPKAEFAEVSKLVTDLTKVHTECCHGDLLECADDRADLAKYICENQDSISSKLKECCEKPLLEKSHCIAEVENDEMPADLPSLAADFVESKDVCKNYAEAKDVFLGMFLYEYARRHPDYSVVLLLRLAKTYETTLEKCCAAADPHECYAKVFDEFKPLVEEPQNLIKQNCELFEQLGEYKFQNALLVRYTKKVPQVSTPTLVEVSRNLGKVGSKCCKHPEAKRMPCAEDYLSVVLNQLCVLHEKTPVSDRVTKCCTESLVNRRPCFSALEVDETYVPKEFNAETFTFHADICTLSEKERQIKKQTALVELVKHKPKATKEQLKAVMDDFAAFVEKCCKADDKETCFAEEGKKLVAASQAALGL
Chain of human CB2 (hCB2) cannabinoid receptor (P34972 whole entry): as the sequence (P34972 whole entry) above
Chain of human CB1 (hCB1) cannabinoid receptor (P21554 whole entry): as the sequence (P21554 whole entry) above

With `CCCCC/C=C\C/C=C\C/C=C\C/C=C\CCCC(=O)NCCO` [AEA, anandamide, reference compound], the AGP binding level result in series [1] is “very high”.
With `C=C(C)[C@@H]1CCC(C)=C[C@H]1c1c(O)cc(CCCCC)cc1O` [CBD, cannabidiol, reference compound], the HSA binding level result in series [2] is “high”. Besides, in series [1], the AGP binding level entry is “very high”.
In the case of `CCCCCCC(C)(C)c1ccc([C@@H]2C[C@H](O)CC[C@H]2CCCO)c(O)c1` [CP55,940, reference compound], the HSA binding level entry in series [2] was “high”.
`CCCCC/C=C\C/C=C\C/C=C\C/C=C\CCCC(=O)OC(CO)CO` [Compound 2-AG, 2-arachidonoylglycerol, reference compound]: in series [2], the HSA binding level entry is “high”. Besides, the AGP binding level entry in series [1] is recorded as “very high”.
On to `CCCCCCC(C)(C)c1cc(OC)c2c(c1)OC(C)(C)c1cn(C)nc1-2` [Compound 16, 7-(1,1-Dimethylheptyl)-2,4-dihydro-9-methox y-2,4,4-trimethylchromeno[4,3-c]pyrazole], for which, at hCB2R [3], the “effect on forskolin-stimulated cAMP accumulation, preliminary screening” value (shortened to “effect … preliminary screening”) is “no effect” and the “CB2R antagonism of CP55,940 effect in cAMP assay” value (“CB2R antagonism” below) is recorded as “able to antagonize the effect of the cannabinoid agonist CP55,940”.
Turning to `CCCCCCC(C)(C)c1cc(OC)c2c(c1)OC(C)(C)c1cnn(CC)c1-2` [Compound 17, 7-(1,1-Dimethylheptyl)-1-ethyl-1,4-dihydro-9-methoxy-4,4-dimethylchromeno[4,3-c]pyrazole], on hCB2R [3], the “effect … preliminary screening” value is on record as “low to high inhibition” and the “CB2 functional profile in cAMP assay” value is recorded as “partial or weak agonists”.
On to `CCCCCCC(C)(C)c1cc(OC)c2c(c1)OC(C)(C)c1cn(CC)nc1-2` [Compound 18, 7-(1,1-Dimethylheptyl)-2-ethyl-2,4-dihydro-9-methoxy-4,4-dimethylchromeno[4,3-c]pyrazole], for which, in series [2], the HSA binding level entry is given as “very high”. Also, the AGP binding level result in series [1] is recorded as “very high”. On hCB2R [3], the “effect … preliminary screening” value is reported as “low to high inhibition” and the “CB2 functional profile in cAMP assay” value was “partial or weak agonists”.
On to `CCCCCCC(C)(C)c1cc(OCc2ccccc2)c2c(c1)OC(C)(C)c1cn[nH]c1-2` [Compound 22, 9-Benzyloxy-2,4-dihydro-7 - (1,1-di m ethylheptyl)-4,4 - dimethylchromeno[4,3-c]pyrazole], for which, at hCB2R [3], the “effect … preliminary screening” value was “low to high inhibition” and the “CB2 functional profile in cAMP assay” value is listed as “partial or weak agonists”.
Turning to `CCCCCCC(C)(C)c1cc(OCCCO)c2c(c1)OC(C)(C)c1cn[nH]c1-2` [Compound 28, 7-(1,1-Dimethylheptyl)-2,4-dihydro-9-(3-hydroxypropoxy)-4,4-dimethylchromeno[4,3-c]pyrazole], in series [2], the HSA binding level result is given as “very high”. Besides, the AGP binding level result in series [1] is recorded as “very high”. Besides, on hCB2R [3], the “effect … preliminary screening” value was “low to high inhibition” and the “CB2 functional profile in cAMP assay” value was “partial or weak agonists”.
On to `CCCCCCC(C)(C)c1cc(OCCCO)c2c(c1)OC(C)(C)c1cn(CC)nc1-2` [Compound 31, 7-(1,1-Dimethylheptyl)-2-ethyl-2,4-dihydro-9-(3-hydroxypropoxy)-4,4-dimethylchromeno-[4,3-c]pyrazole], for which, at hCB2R [3], the “effect … preliminary screening” value is “no effect” and the “CB2R antagonism” value was “behaved as the CP55,940 antagonist only at the highest concentration”.
Take `CCCCCCC(C)(C)c1cc(OCCO)c2c(c1)OC(C)(C)c1cn[nH]c1-2` [Compound 34, 7-(1,1-Dimethylheptyl)-2,4-dihydro-9-(2-hydroxyethoxy)-4,4-dimethylchromeno[4,3-c]pyra-zole]: at hCB2R [3], the “effect … preliminary screening” value is reported as “low to high inhibition” and the “CB2 functional profile in cAMP assay” value is given as “potent CB2 agonists”. Besides, the IC50 at hCB2R [4] stood at 95.1 ± 7.2 nM.
As for `CCCCCCC(C)(C)c1cc(OCCO)c2c(c1)OC(C)(C)c1cn(C)nc1-2` [Compound 35, 7-(1,1-Dimethylheptyl)-2,4-dihydro-9-(2-hydroxyethoxy)-2,4,4-trimethylchromeno[4,3-c]py-razole], at hCB2R [3], the “effect … preliminary screening” value is reported as “no effect” and the “CB2R antagonism” value is on record as “able to antagonize the effect of the cannabinoid agonist CP55,940”.
Take `CCCCCCC(C)(C)c1cc(OCCO)c2c(c1)OC(C)(C)c1cn(CC)nc1-2` [Compound 36, 7-(1,1-Dimethylheptyl)-2-ethyl-2,4-dihydro-9-(2-hydroxyethoxy)-4,4-dimethylchromeno[4,3-c]pyrazole]: the HSA binding level entry in series [2] is “very high”. Also, the AGP binding level result in series [1] is “very high”.
For `CCCCCCC(C)(C)c1cc(OCCCBr)c2c(c1)OC(C)(C)c1cn(C)nc1-2` [Compound 37, 9-(3-Bromopropoxy)-7-(1,1-dimethylheptyl)-2,4-dihydro-2,4,4-trimethylchromeno[4,3-c]py-razole], in series [2], the HSA binding level result was “very high”. Besides, the AGP binding level entry in series [1] is reported as “very high”. At hCB2R [3], the “effect … preliminary screening” value is recorded as “low to high inhibition” and the “CB2 functional profile in cAMP assay” value is reported as “partial or weak agonists”.
Take `CCCCCCC(C)(C)c1cc(OCCBr)c2c(c1)OC(C)(C)c1cnn(CC)c1-2` [Compound 39, 9-(2-Bromoethoxy)-7-(1,1-dimethylheptyl)-1-ethyl-1,4-dihydro-4,4-dimethylchromeno[4,3-c]pyrazole]: the HSA binding level result in series [2] is listed as “medium”. For the same molecule, the Ki in series [5] was 78.7 ± 11.3 nM. In series [1], the AGP binding level entry is given as “medium”. In addition, at hCB2R [3], the “effect … preliminary screening” value is “low to high inhibition” and the “CB2 functional profile in cAMP assay” value is reported as “partial or weak agonists”. This molecule also showed a Ki in series [6] of 1330 ± 320 nM.
As to `CCCCCCC(C)(C)c1cc2c(c3c1CCCO3)-c1c(cnn1CC)C(C)(C)O2` [Compound 40, 7-(1,1-Dimethylheptyl)-1-ethyl-1,4,9,10-tetrahydro-4,4-dimethyl-8H-pyrano[2′,3′:5,6]chrome-no[4,3-c]pyrazole], the HSA binding level entry in series [2] is “medium”. In addition, the AGP binding level result in series [1] is recorded as “medium”.
As to `CCCCCCC(C)(C)c1cc(O)c2c(c1)OC(C)(C)c1cnoc1-2` [Compound 42, 7-(1,1-Dimethylheptyl)-4,4-dimethyl-4H-chromeno[3,4-d]-isoxazol-9-ol], the HSA binding level result in series [2] is recorded as “very high”. In addition, the AGP binding level result in series [1] is recorded as “very high”. For the same molecule, the “fold more potent than 10b and 22 in [35S]-GTPγS binding (CB1R)” value at human CB1 receptor is listed as “at least 10 fold”. On hCB2R [4], this molecule gave an IC50 of 50.2 ± 24.9 nM.
As for `CCCCCCC(C)(C)c1cc(OC)c2c(c1)OC(C)(C)c1cnoc1-2` [Compound 43, 7-(1,1-Dimethylheptyl)-9-methoxy-4,4-dimethyl-4H-chromeno-[3,4-d]isoxazole], in series [2], the HSA binding level result is “medium”. Besides, the AGP binding level entry in series [1] is “medium”. For the same molecule, on hCB2R [4], the IC50 came out at 38.6 ± 6.7 nM.
On hCB2R [4], `CCCCCCC(C)(C)c1cc(OCCCO)c2c(c1)OC(C)(C)c1cnoc1-2` [Compound 44, 7-(1,1-Dimethylheptyl)-9-(3-hydroxypropoxy)-4,4-dimethyl-4H-chromeno[3,4-d]isoxazole] had a half-inhibitory concentration (IC50) of 540 ± 208 nM.
